Test results reported in ChEMBL document CHEMBL5724914, “Linking interpersonal differences in gut microbiota composition and drug biotransformation activity” (2024).

Legend:
[1] = human gut metagenome, 24 h, 2 µM
[2] = human gut metagenome, 24 h, 2 µM; remark: listed apart in the source
[3] = human gut metagenome, 24 h, 2 µM; remark: listed apart in the source
[4] = human gut metagenome, 24 h, 2 µM; remark: listed apart in the source
[5] = The drug is tested on Z-023 corresponding to metagenome with ENA study accession number: PRJEB37062 and ENA sample accession number: ERS12561822 for biotransformation under anaerobic condition. The drug concentrations were measured over 9 timepoints collected between 0 and 24 hours of incubation by liquid-chromatography-coupled mass spectrometry (LC–MS); conditions: 2 µM
[6] = (§1) The drug is tested on WLS-007 corresponding to human gut metagenome with ENA study accession number: PRJEB37062 and ENA sample accession number: ERS12561742 for biotransformation under anaerobic condition. The drug concentrations were measured over 9 timepoints collected between 0 and 24 hours of incubation by liquid-chromatography-coupled mass spectrometry (LC–MS); conditions: 2 µM
[7] = as §1, with “WLS-240” for “WLS-007”, “ERS12561773” for “ERS12561742”; conditions: 2 µM
[8] = human gut metagenome, 24 h, 2 µM; remark: listed apart in the source
[9] = human gut metagenome, 24 h, 2 µM; remark: listed apart in the source
Further: call rule not given here.

Row | SMILES | Bacterial Biotransformation [1] | Bacterial Biotransformation [2] | Bacterial Biotransformation [3] | Bacterial Biotransformation [4] | Bacterial Biotransformation [5] | Bacterial Biotransformation [6] | Bacterial Biotransformation [7] | Bacterial Biotransformation [8] | Bacterial Biotransformation [9]
1 | CN1CCC(=C2c3ccccc3CCc3cccnc32)CC1.O=C(O)/C=C\C(=O)O.O=C(O)/C=C\C(=O)O [AZATADINE MALEATE] | Compound NOT metabolized | Compound NOT metabolized | Compound NOT metabolized | Compound NOT metabolized | Compound NOT metabolized | Compound NOT metabolized | Compound NOT metabolized | Compound NOT metabolized | Compound metabolized
2 | CC(=O)OCC(=O)[C@@]1(O)[C@@H](C)C[C@H]2[C@@H]3CCC4=CC(=O)C=C[C@]4(C)[C@@]3(F)[C@@H](O)C[C@@]21C [BETAMETHASONE ACETATE] | Compound metabolized | Compound metabolized | Compound metabolized | Compound metabolized | Compound metabolized | Compound metabolized | Compound metabolized | Compound metabolized | Compound metabolized
3 | CC(C)NCC(O)COc1ccc(CCOCC2CC2)cc1 (stereo unspecified) [BETAXOLOL] | Compound metabolized | Compound NOT metabolized | Compound NOT metabolized | Compound NOT metabolized | Compound metabolized | Compound NOT metabolized | Compound metabolized | Compound metabolized | Compound metabolized
4 | CC(C)(Oc1ccc(CCNC(=O)c2ccc(Cl)cc2)cc1)C(=O)O [BEZAFIBRATE] | Compound metabolized | Compound NOT metabolized | Compound metabolized | Compound metabolized | Compound metabolized | Compound metabolized | Compound metabolized | Compound metabolized | Compound metabolized
5 | CC(O)(CS(=O)(=O)c1ccc(F)cc1)C(=O)Nc1ccc(C#N)c(C(F)(F)F)c1 (stereo unspecified) [BICALUTAMIDE] | Compound NOT metabolized | Compound NOT metabolized | Compound NOT metabolized | Compound NOT metabolized | Compound NOT metabolized | Compound NOT metabolized | Compound NOT metabolized | Compound NOT metabolized | Compound NOT metabolized
6 | CCCC1O[C@@H]2C[C@H]3[C@@H]4CCC5=CC(=O)C=C[C@]5(C)[C@H]4[C@@H](O)C[C@]3(C)[C@]2(C(=O)CO)O1 (stereo partly specified) [BUDESONIDE] | Compound metabolized | Compound metabolized | Compound metabolized | Compound metabolized | Compound NOT metabolized | Compound metabolized | Compound metabolized | Compound metabolized | Compound metabolized
7 | O=C(NCc1ccccc1)OCCO [BURAMATE] | Compound NOT metabolized | Compound NOT metabolized | Compound NOT metabolized | Compound NOT metabolized | Compound NOT metabolized | Compound NOT metabolized | Compound NOT metabolized | Compound NOT metabolized | Compound NOT metabolized
8 | CCN(CC)CCOCCOC(=O)C1(c2ccccc2)CCCC1.O=C(O)CC(O)(CC(=O)O)C(=O)O [CARBETAPENTANE CITRATE] | Compound metabolized | Compound NOT metabolized | Compound metabolized | Compound metabolized | Compound NOT metabolized | Compound NOT metabolized | Compound metabolized | Compound metabolized | Compound metabolized
9 | O=C(O)COCCN1CCN(C(c2ccccc2)c2ccc(Cl)cc2)CC1 (stereo unspecified) [CETIRIZINE] | Compound metabolized | Compound metabolized | Compound metabolized | Compound metabolized | Compound metabolized | Compound metabolized | Compound metabolized | Compound metabolized | Compound metabolized
10 | CN/C(=N/CCSCc1nc[nH]c1C)NC#N [CIMETIDINE] | Compound metabolized | Compound NOT metabolized | Compound metabolized | Compound metabolized | Compound NOT metabolized | Compound NOT metabolized | Compound metabolized | Compound metabolized | Compound metabolized
11 | Br.CN(C)CCCC1(c2ccc(F)cc2)OCc2cc(C#N)ccc21 (stereo unspecified) [CITALOPRAM HYDROBROMIDE] | Compound metabolized | Compound NOT metabolized | Compound metabolized | Compound metabolized | Compound NOT metabolized | Compound NOT metabolized | Compound metabolized | Compound metabolized | Compound metabolized
12 | CN(C)CCC=C1c2ccccc2C=Cc2ccccc21 [CYCLOBENZAPRINE] | Compound metabolized | Compound metabolized | Compound metabolized | Compound metabolized | Compound metabolized | Compound metabolized | Compound metabolized | Compound metabolized | Compound metabolized
13 | O=C(Nc1ccccc1)OCC(CN1CCCCC1)OC(=O)Nc1ccccc1 (stereo unspecified) [DIPERODON] | Compound metabolized | Compound NOT metabolized | Compound metabolized | Compound metabolized | Compound metabolized | Compound NOT metabolized | Compound metabolized | Compound NOT metabolized | Compound NOT metabolized
14 | CC(C)N(CCC(C(N)=O)(c1ccccc1)c1ccccn1)C(C)C.O=P(O)(O)O (stereo unspecified) [DISOPYRAMIDE PHOSPHATE] | Compound NOT metabolized | Compound NOT metabolized | Compound NOT metabolized | Compound NOT metabolized | Compound NOT metabolized | Compound metabolized | Compound NOT metabolized | Compound metabolized | Compound metabolized
15 | C[C@@H](CO)NC(=O)[C@@H]1C=C2c3cccc4[nH]cc(c34)C[C@H]2N(C)C1.O=C(O)/C=C\C(=O)O [ERGONOVINE MALEATE] | Compound metabolized | Compound metabolized | Compound metabolized | Compound metabolized | Compound NOT metabolized | Compound NOT metabolized | Compound metabolized | Compound NOT metabolized | Compound metabolized
16 | CCN(CC)C(C)CN1c2ccccc2Sc2ccccc21 (stereo unspecified) [ETHOPROPAZINE] | Compound metabolized | Compound metabolized | Compound metabolized | Compound metabolized | Compound metabolized | Compound metabolized | Compound metabolized | Compound metabolized | Compound metabolized
17 | Cc1nc(-c2ccc(OCC(C)C)c(C#N)c2)sc1C(=O)O [FEBUXOSTAT] | Compound metabolized | Compound NOT metabolized | Compound metabolized | Compound metabolized | Compound metabolized | Compound NOT metabolized | Compound metabolized | Compound metabolized | Compound metabolized
18 | CC(C)(C(=O)O)c1ccc(C(O)CCCN2CCC(C(O)(c3ccccc3)c3ccccc3)CC2)cc1 (stereo unspecified) [FEXOFENADINE] | Compound NOT metabolized | Compound NOT metabolized | Compound NOT metabolized | Compound NOT metabolized | Compound metabolized | Compound NOT metabolized | Compound NOT metabolized | Compound NOT metabolized | Compound NOT metabolized
19 | OCCN1CCN(CCCN2c3ccccc3Sc3ccc(C(F)(F)F)cc32)CC1 [FLUPHENAZINE] | Compound metabolized | Compound metabolized | Compound metabolized | Compound metabolized | Compound metabolized | Compound NOT metabolized | Compound metabolized | Compound metabolized | Compound metabolized
